Source: US12077501B2, “Compounds and compositions for intracellular delivery of agents” (ModernaTX, Inc., priority 2017, dated 2024)

Assays:
hEPO expression [1] = test: hEPO expression in CD-1 mice compared with MC3; format: in vivo; settings: intravenous, 0.5 mpk, Table 7e
Text: (§1) In contrast, hEPO expression in rats induced by administration of a nanoparticle composition including a compound according to one of formulae (I), (Ia1)-(Ia6), (Ib), (II), (IIa), (III), and (IIIa) was substantially […] than that measured for MC3. […] Tables 7c and 7d show additional protein expressions and clearance data from compositions with various compounds disclosed herein as compared to with MC3. Tables 7e, 7f and 7g show hEPO expression data in CD-1 mice at a dose of 0.5 mpk.

[2] = pKa of nanoparticle compositions; format: physicochemical
[3] = Lipid purity change after storage in EtOH for 96 h at 25 or 37 °C; format: physicochemical
Description: Nanoparticle compositions including a therapeutic and/or prophylactic agent can be optimized according to the selection of a compound according to one of formulae (I), (Ia1)-(Ia10), (Ib), (Ic), (Id), (Id1)-(Id10), (Ie), (Ie1)-(Ie6), (II), (IIa), (III), and (IIIa), the selection of additional lipids, the amount of each lipid in the lipid component, and the wt:wt ratio of the lipid component to the therapeutic and/or prophylactic agent, as described herein. Initial studies were performed to compare the delivery efficiency of nanoparticle compositions including various compounds according to one of formulae (I), (Ia1)-(Ia10), (Ib), (Ic), (Id), (Id1)-(Id10), (Ie), (Ie1)-(Ie6), (II), (IIa), (III), and (IIIa). The cationic lipid MC3 is a current standard in the art. Also determined was the stability of nanoparticles of the disclosure, i.e., the purity after storage in EtOH for 96h at 25° C. or 37° C. (Table Id).

[4] = Particle size and polydispersity index of nanoparticle compositions (Zetasizer Nano ZS); format: physicochemical
Description: A Zetasizer Nano ZS (Malvem Instruments Ltd, Malvem, Worcestershire, UK) can be used to determine the particle size, the polydispersity index (PDI) and the zeta potential of the nanoparticle compositions in 1×PBS in determining particle size and 15 mM PBS in determining zeta potential.

[5] = Encapsulation efficiency of RNA (QUANT-IT RIBOGREEN RNA assay); format: physicochemical
Description: For nanoparticle compositions including an RNA, a QUANT-IT™ RIBOGREEN® RNA assay (Invitrogen Corporation Carlsbad, CA) can be used to evaluate the encapsulation of an RNA by the nanoparticle composition. The samples are diluted to a concentration of approximately 5 μg/mL in a TE buffer solution (10 mM Tris-HCl, 1 mM EDTA, pH 7.5). 50 μL of the diluted samples are transferred to a polystyrene 96 well plate and either 50 μL of TE buffer or 50 μL of a 2% Triton X-100 solution is added to the wells. The plate is incubated at a temperature of 37° C. for 15 minutes. The RIBOGREEN® reagent is diluted 1:100 in TE buffer, and 100 μL of this solution is added to each well. The fluorescence intensity can be measured using a fluorescence plate reader (Wallac Victor 1420 Multilablel Counter; Perkin Elmer, Waltham, MA) at an excitation wavelength of, for example, about 480 nm and an emission wavelength of, for example, about 520 nm. The fluorescence values of the reagent blank are subtracted from that of each of the samples and the percentage of free RNA is determined by dividing the fluorescence intensity of the intact sample (without addition of Triton X-100) by the fluorescence value of the disrupted sample (caused by the addition of Triton X-100).

[6] = Lipid clearance: % dose remaining in liver of CD-1 mice; format: in vivo; settings: intravenous, 0.5 mg/kg, CD-1 mouse, Table 8a
Text: as §1

hEPO expression [7] = test: hEPO (miR126 + miR142) mRNA expression, Tables 8b-8e; format: in vivo; settings: Table 8b
[8] = Table 1c, nanoparticle compositions
[9] = Table 1d, Formulated with lipid:Chol:DOPE:PEG 1 40:38.5:20:1.5

Row | Structure (SMILES) | AUC (p/s*h) CD-1 mice 0.5 mpk (hEPO expression [1]) [p/s*h] | Lipid % change purity in EtOH, 25° C., 96 h [3] [%] | Lipid % change purity in EtOH, 37° C., 96 h [3] [%] | pKa ([2]; Table 1c) | PDI [4, 8] | Size (nm) [4, 8] [nm] | EE (%) [5, 8] [%] | % Dose Remaining 24 hr [6] [%] | also measured
1 | CCCCCCCCCN(CCCCCCCCC)CCN(CCCCCCCCC)CC(=O)N1CCN(C(=O)CN(CCCCCCCCC)CCCC(=O)OCCCCC)CC1 [Compound 45, Pentyl 4-((2-(4-(N-(2-(dinonylamino)ethyl)-N-nonylglycyl)piperazin-1-yl)-2-oxoethyl)(nonyl)amino)butanoate] | 6.98E+07 | – | – | – | – | – | – | – | –
2 | CCCCCCCCCN(CCCCCCCCC)CCC1CCN(C(=O)CN(CCCCCCCCC)CCN(CCCCCCCCC)CCCCCCCCC)CC1 [Compound 49, 2-((2-(Dinonylamino)ethyl)(nonyl)amino)-1-(4-(2-(dinonylamino)ethyl)piperidin-1-yl)ethan-1-one] | 1.59E+08 | – | – | – | – | – | – | – | –
3 | CCCCCCCCCN(CCCCCCCCC)CCC(=O)N1CCN(C(=O)CCN(CCCCCCCCC)CCN(CCCCCCCCC)CCCCCCCCC)CC1 [Compound 52, 3-(Dinonylamino)-1-(4-(3-((2-(dinonylamino)ethyl)(nonyl)amino)propanoyl)piperazin-1-yl)propan-1-one] | 7.78E+07 | – | – | – | – | – | – | – | –
4 | CCCCCCCCCN(CCCCCCCCC)CCN(CCCCCCCCC)CC(=O)N1CCN(C(=O)CN(CCCCCCCCC)CCCOC(=O)CCCCC)CC1 [Compound 56, 3-((2-(4-(N-(2-(Dinonylamino)ethyl)-N-nonylglycyl)piperazin-1-yl)-2-oxoethyl)(nonyl)amino)propyl hexanoate] | 4.52E+07 | – | – | – | – | – | – | – | pKa ([2]; Table 1b): 6.94
5 | CCCCCCCCCN(CCCCC(=O)OCCCC)CCC1CCN(C(=O)CN(CCCCCCCCC)CCN(CCCCCCCCC)CCCCCCCCC)CC1 [Compound 60, Butyl 5-((2-(1-(N-(2-(dinonylamino)ethyl)-N-nonylglycyl)piperidin-4-yl)ethyl)(nonyl)amino)pentanoate] | 4.86E+07 | – | – | – | – | – | – | – | pKa ([2]; Table 1b): 6.66
6 | CCCCCCCCCN(CCCOC(=O)CCCCC)CCC1CCN(C(=O)CN(CCCCCCCCC)CCN(CCCCCCCCC)CCCCCCCCC)CC1 [Compound 61, 3-((2-(1-(N-(2-(Dinonylamino)ethyl)-N-nonylglycyl)piperidin-4-yl)ethyl)(nonyl)amino)propyl hexanoate] | 6.29E+07 | – | – | – | – | – | – | – | pKa ([2]; Table 1b): 6.61
7 | CCCCCCCCCN(CCCC(=O)OCCCCC)CCN(CCCCCCCCC)CC(=O)N1CCN(C(=O)CN(CCCCCCCCC)CCCC(=O)OCCCCC)CC1 [Compound 71, Pentyl 4-(nonyl(2-(4-(N-nonyl-N-(2-(nonyl(4-oxo-4-(pentyloxy)butyl)amino)ethyl)glycyl)piperazin-1-yl)-2-oxoethyl)amino)butanoate] | 2.48E+07 | – | – | – | – | – | – | – | pKa ([2]; Table 1b): 6.44
8 | CCCCCCCCCN(CCCCCCCCC)CCN(CCCCCCCCC)CC(=O)N1CCC(COC(=O)CN(CCCCCCCCC)CCCCCCCCC)C1 (centres unmarked) [Compound 102, (1-(N-(2-(Dinonylamino)ethyl)-N-nonylglycyl)pyrrolidin-3-yl)methyl dinonylglycinate] | 6.34E+06 | 14.8 | 31.5 | 5.85 | 0.23 | 71.5 | 97.6 | – | –
9 | CCCCCCCCCCCCCCN(CCCCCCCCCCCC(=O)OC)CCC1CCCN(C(=O)CN(CCCCCCCCC)CCN(CCCCCCCCC)CCCCCCCCC)C1 (centres unmarked) [Compound 123, Methyl 12-((2-(1-(N-(2-(dinonylamino)ethyl)-N-nonylglycyl)piperidin-3-yl)ethyl)(tetradecyl)amino)dodecanoate] | 5.84E+07 | – | – | 6.51 | – | – | – | 3.75 | –
10 | CCCCCCCCCCCCCCN(CCCCCC(=O)OCCCCCCC)CCC1CCN(C(=O)CN(CCCCCCCCC)CCN(CCCCCCCCC)CCCCCCCCC)C1 (centres unmarked) [Compound 125, Heptyl 6-((2-(1-(N-(2-(dinonylamino)ethyl)-N-nonylglycyl)pyrrolidin-3-yl)ethyl)(tetradecyl)amino)hexanoate] | 7.89E+06 | – | – | 6.89 | – | – | – | 2.74 | –
11 | CCCCCC/C=C\CC(=O)OCCCN(CCCCCCCCCCCCCC)CC(=O)N1CCN(C(=O)CN(CCCCCCCCC)CCN(CCCCCCCCC)CCCCCCCCC)CC1 [Compound 137, 3-((2-(4-(N-(2-(Dinonylamino)ethyl)-N-nonylglycyl)piperazin-1-yl)-2-oxoethyl)(tetradecyl)amino)propyl (Z)-dec-3-enoate] | – | 0.36 | 1.17 | 6.93 | 0.22 | 78.5 | 98.8 | 0.26 | –
12 | CCCCC/C=C\CCN(CC/C=C\CCCCC)CCN(CC/C=C\CCCCC)CC(=O)N1CCN(C(=O)CN(CCCCCCCCC)CCCCCCCC(=O)OC)CC1 [Compound 139, Methyl 8-((2-(4-(N-(2-(Di((Z)-non-3-en-1-yl)amino)ethyl)-N—((Z)-non-3-en-1-yl)glycyl)piperazin-1-yl)-2-oxoethyl)(nonyl)amino)octanoate] | – | 0.67 | 1.49 | 6.15 | 0.23 | 83.8 | 94.8 | 0.29 | –
13 | CCCCCCCCCCCC(=O)N1CCN(C(=O)CN(CCCCCCCCC)CCN(CCCCCCCCC)CCCCCCCCC)CC1 [Compound 143, 1-(4-(N-(2-(Dinonylamino)ethyl)-N-nonylglycyl)piperazin-1-yl)dodecan-1-one] | – | 1.10 | 1.80 | 7.26 | 0.21 | 93.7 | 97.4 | 38.63 | –
14 | CCCCCCCCCN(CCCCCCCCC)CCN(CCCCCCCCC)CC(=O)N1CCN(C(=O)CCCC(=O)OCCCCCCC)CC1 [Compound 144, Heptyl 5-(4-(N-(2-(dinonylamino)ethyl)-N-nonylglycyl)piperazin-1-yl)-5-oxopentanoate] | – | 5.06 | 7.63 | 7.59 | 0.19 | 83.3 | 97.2 | 3.25 | –
15 | CCCCCCCCCN(CCCCCCCCC)CCN(CCCCCCCCC)CC(=O)N(C)CCCCN(C)C(=O)CN(CCCCCCCCC)CCCCCCCCC [Compound 159, 2-(dinonylamino)-N-(4-(2-((2-(dinonylamino)ethyl)(nonyl)amino)-N-methylacetamido)butyl)-N-methylacetamide] | – | – | – | – | – | – | – | – | AUC (hEPO expression [7]): 6.56e+07 pg·h/mL; PDI [4, 9]: 0.12; Size (nm) [4, 9]: 76.5 nm; EE (%) [5, 9]: 92.9%
